Source: US10676408B2, “Alkynylpyrazoles as nitrification inhibitors” (BASF SE, priority 2014, dated 2020)

Test system: nitrification
Assay: Inhibition of nitrification in soil (48 well plate, ammonium sulfate, color reaction at 540 nm)
Assay type: cell-based
Conditions: dose of 10 ppm in 1% DMSO; field soil (e.g. Limburgerhof); incubated at room temperature for up to 72 hrs; inhibition = 100 − % activity compared to control; read-out: IN (best inhibition value obtained for a compound)
Description: The compounds of the invention have been tested as follows in terms of the inhibition of nitrification:
Soil was sampled fresh from a field (e.g. Limburgerhof), dried and sieved through a 500 μm sieve. Approximately 200 mg of soil were placed into each well of a 48 well plate. Compounds, or DMSO alone, were added at a concentration of 10 ppm, dissolved in 1% DMSO. 6 μmol ammonium sulfate was added per well as well as 4.8 mg NaClO3.
Subsequently, the samples were incubated at room temperature for up to 72 hrs. After the incubation period 64 mg KCl were added and mixed. 25 μl of the supernatant were placed into a fresh plate and 260 μl of a color reaction solution (from Merck Nr 1.11799.0100) were added.
Measurements were taken with a Tecan plate Reader at 540 nm wavelength.
Inhibition is calculated as x=% activity compared to control, and converted to 100−x to give the value of inhibition, rather than activity.

Question: How did the inhibition at 10 ppm turn out when `C#Cc1cc(C#C)n(C)n1` [Compound 1] was run?
Answer: The inhibition at 10 ppm was 55%.

Question: Which inhibition at 10 ppm does the source give for `C#Cc1ccnn1C` [Compound 2] here?
Answer: Its inhibition at 10 ppm is 24%.

Question: With `C#Cc1c(C)nn(C)c1C` [Compound 3] as the compound, how does the inhibition at 10 ppm read?
Answer: Its inhibition at 10 ppm is 27%.
